Experimental data as given in patent US4157439A, “Novel nitrosourea derivatives” (priority 1976, dated 1979).
Where two headings read alike, the source gives them in different places.

Columns and labels:
[1] = cited from earlier work
leukemia and tumors = conditions: background statement on earlier compounds; cited from earlier work
[2] = background statement on earlier compounds; cited from earlier work
[3] = Acute toxicity in the intraperitoneal administration to BDF1 mice; conditions: mouse, in vivo, ip
Description: It will be appreciated clearly from the tests results of Table 1 that the novel nitrosourea derivatives according to this invention gave a significant increase in life-span in therapeutic treatment of the leukemia in comparison with streptozotocin as a known anti-leukemic nitrosourea. The novel nitrosourea derivatives according to this invention are further characterized by their low toxicity, thus satisfying their practical application for treating leukemia and tumor diseases. For example, acute toxicity in the intraperitoneal administration to BDF1 mice of typical nitrosourea derivatives according to this invention is shown below: […]

Leukemia L 1210 = experiment: Anti-leukemic activity on Leukemia L 1210 in mice (survival, percentage increase in life-span); assay type: in vivo, male BDF1 mice; conditions: for Survival days (mean): untreated control 8.0 days; for Number of survivors (after 60 days): survivors/animals after 60 days
Method: The anti-leukemic activity of some typical nitrosourea derivatives of the formula (I) according to this invention was tested on Leukemia L 1210 in mice, details of which are given below. By way of comparison, Streptozotocin was tested in the same way.
Male BDF1 mice, aging about 6-weeks old and weighing 22±1 g were used in groups of 5 animals each for the tests.
Each animal was inoculated with 10^6 cells of L 1210 intraperitoneally,and the test compound in the form as shown below was administered intraperitoneally from the 24th hour after inoculation once a day for 3 consecutive days. The anti-leukemic activity was assessed by comparing the mean survival days of the treated mice to that of the untreated control, i.e. percentage increase in life-span (ILS) which was calculated as follows:
Percentage increase in life-span (ILS)=(T-C/C)×100
T: The mean survival days of the treated animals
C: The mean survival days of the untreated animals
The compounds No. 1 and No. 3 were used in the form of an aqueous solution in distilled water and the compound No. 2 in the form of an aqueous suspension containing 1% CMC.

[4] = background statement on earlier compounds
[5] = dose 4 mg/kg i.p. once a day for 3 days, 60 days observation
[6] = dose 4 mg/kg i.p. once a day for 3 days
[7] = dose 8 mg/kg i.p. once a day for 3 days, 60 days observation
[8] = dose 8 mg/kg i.p. once a day for 3 days
[9] = dose 1 mg/kg i.p. once a day for 3 days, 60 days observation
[10] = dose 2 mg/kg i.p. once a day for 3 days, 60 days observation

O=NN(CCCl)C(=O)N[C@@H]1O[C@H](CO)[C@@H](O)[C@H](O)[C@H]1O [1-(2-chloroethyl)-3-(β-D-glucopyranosyl)-1-nitrosourea]
side effect [1, 4]: low side effect
toxicity [1, 4]: low toxicity
activity against the leukemia and tumors (leukemia and tumors): remarkably high inhibitory activity against a variety of leukemia and tumors
hygroscopicity [2]: somewhat hygroscopic

CC(=O)N[C@@H]1[C@@H](OC(C)=O)[C@H](OC(C)=O)[C@@H](COC(C)=O)O[C@H]1NC(=O)N(CCCl)N=O [compound 1, 1-(2-Chloroethyl)-3-(2-acetamido-3,4,6-tri-O-acetyl-2-deoxy-β-D-glucopyranosyl)-1-nitrosourea]
LD50 [3]: 25 mg/kg
ILS (percentage increase in life-span) (Leukemia L 1210; [5]): 78.8%
Survival days (mean) (Leukemia L 1210; [5]): 14.3 days
Number of survivors (after 60 days) (Leukemia L 1210; [6]): 0/5
ILS (percentage increase in life-span) (Leukemia L 1210; [7]): 105.0%
Survival days (mean) (Leukemia L 1210; [7]): 16.4 days
Number of survivors (after 60 days) (Leukemia L 1210; [8]): 0/5

CC(=O)N[C@@H]1[C@@H](O)[C@H](O)[C@@H](CO)O[C@H]1NC(=O)N(CCCl)N=O [compound 2, 1-(2-Chloroethyl)-3-(2-acetamido-2-deoxy-β-D-glucopyranosyl)-1-nitrosourea]
LD50 [3]: 20 mg/kg
ILS (percentage increase in life-span) (Leukemia L 1210; [9]): 41.3%
Survival days (mean) (Leukemia L 1210; [9]): 11.3 days
Number of survivors (after 60 days) (Leukemia L 1210; dose 1 mg/kg i.p. once a day for 3 days): 0/5
ILS (percentage increase in life-span) (Leukemia L 1210; [10]): 55.0%
Survival days (mean) (Leukemia L 1210; [10]): 12.4 days
Number of survivors (after 60 days) (Leukemia L 1210; dose 2 mg/kg i.p. once a day for 3 days): 0/5
ILS (percentage increase in life-span) (Leukemia L 1210; [5]): 95.0%
Survival days (mean) (Leukemia L 1210; [5]): 15.6 days
Number of survivors (after 60 days) (Leukemia L 1210; [6]): 0/5
ILS (percentage increase in life-span) (Leukemia L 1210; [7]): < 495.0%
Survival days (mean) (Leukemia L 1210; [7]): < 47.6 days
Number of survivors (after 60 days) (Leukemia L 1210; [8]): 3/5

CN(N=O)C(=O)N[C@H]1C(O)O[C@H](CO)[C@@H](O)[C@@H]1O (stereo partly drawn) [compound 3, N-(N'-methyl-N'-nitroso-carbamoyl)-D-glucosamine, reference compound]
side effect ([1]; in vivo): undesirable side effect
activity against the leukemia and tumors (leukemia and tumors): insufficient activity against the leukemia and tumors
Survival days (mean) (Leukemia L 1210; dose 50 mg/kg i.p. once a day for 3 days, 60 days observation): 12.1 days
Number of survivors (after 60 days) (Leukemia L 1210; dose 50 mg/kg i.p. once a day for 3 days): 0/5
Survival days (mean) (Leukemia L 1210; dose 100 mg/kg i.p. once a day for 3 days, 60 days observation): 10.6 days
Number of survivors (after 60 days) (Leukemia L 1210; dose 100 mg/kg i.p. once a day for 3 days): 0/5
ILS (percentage increase in life-span) (Leukemia L 1210; ip, 50 mg/kg): 51.3%
ILS (percentage increase in life-span) (Leukemia L 1210; ip, 100 mg/kg): 32.5%
